From patent publication US20160081917A1, “STEM CELL COMPOSITION FOR VENOUS ADMINISTRATION” (K-STEMCELL CO., LTD, priority 2013, published 2016) come the findings set out here.

Molecules are shown by their SMILES.

Common to all, as to assay type: cell-based, human
For data set [1], the system named is adipose mesenchymal stem cells. The data set can be described thus: FACS analysis of surface marker expression after suspension in saline containing aspirin lysine and cold storage. As to the method:
(§1) The adipose mesenchymal stem cells isolated in Example 1 were treated with trypsin, and then suspended at a concentration of 1.0×10^7 cells in physiological saline containing varying concentrations of aspirin lysine (Shin Poong Pharm. Co., Ltd, Korea). Then, the cells were incubated for 5 days, and the cell count of the cells was measured. In addition, the cells were cold-stored for 24 hours, and then the characteristics of the cells were analyzed by FACS.
Background: In flow cytometry, cells or beads pass a laser one at a time.

The subject of data set [2] is adipose mesenchymal stem cells. The data set can be described thus: Viability and cell count after 5 days of incubation following suspension in saline containing aspirin lysine. The following applies: varying concentrations in physiological saline. As for the experimental part: as §1
Data set [3] deals with adipose mesenchymal stem cells. The data set can be described thus: Viability of stem cells suspended in physiological saline containing acetylsalicylic acid. As to the method:
The adipose mesenchymal stem cells isolated in Example 1 were treated with trypsin, and then suspended at a concentration of 1.0×10^7 cells in physiological saline containing varying concentrations of acetylsalicylic acid (Sigma; A5376), after which the viability of the cells at 12 hours and 24 hours after the suspension was observed. The physiological saline containing acetylsalicylic acid was prepared by adding acetylsalicylic acid to physiological saline at varying concentrations and sonicating it at 37° C. for 30 minutes.

The mark [4] stands for this setting: 0.1 mg/10 ml, cold-stored for 24 hours, FACS.

Take `CC(=O)Oc1ccccc1C(=O)O` [aspirin lysine]: in data set [1] (setting [4]), the “Expression rate CD29” value was 99.97%, the “Expression rate CD31” value stood at 0.21%, the “Expression rate CD44” value is recorded as 99.25% and the “Expression rate CD45” value stood at 0.17%. In data set [1] (setting [4]), the “Expression rate CD90” value is given as 99.66% and the “Expression rate CD105” value was 99.89%. Further, the “characteristics of the adipose mesenchymal stem cells (FACS)” value in data set [1] (suspended 24 hours in aspirin-containing saline, then cold-stored 24 hours) is “not dependent on the concentration of aspirin lysine”. For the same compound, in data set [2], the “cell viability depending on concentration” value was “somewhat decreased depending on the concentration of aspirin lysine, but this decrease was not significant” and the “count of the cells after 5 days of incubation” value was “did not almost differ between the concentrations of aspirin lysine”.
For the compound `CC(=O)Oc1ccccc1C(=O)O` [acetylsalicylic acid], the cytotoxicity result in data set [3] (1.0 mg or more added to 10 ml of physiological saline) is listed as “cytotoxic”. Also, the Viability worked out at 50% in data set [3] (1.0 mg/10 ml in physiological saline, 12 hours after suspension); 10% in data set [3] (1.0 mg/10 ml in physiological saline, 24 hours after suspension); 20% in data set [3] (2.0 mg/10 ml in physiological saline, 12 hours after suspension); 10% in data set [3] (2.0 mg/10 ml in physiological saline, 24 hours after suspension); 10% in data set [3] (5.0 mg/10 ml in physiological saline, 12 hours after suspension); 5% in data set [3] (5.0 mg/10 ml in physiological saline, 24 hours after suspension).
